Laboratory results published in patent publication US20030068275A1, “Coordination complexes for detecting analytes, and methods of making and using the same” (priority 2001, published 2003).

Assay: Detection of nitric oxide with the [Co2(O2CAr^Tol)4(dansylpiperazine)2] fluorescent sensor
Settings: for peak emission intensity wavelength: CH2Cl2, excited at 350 nm
Protocol: Detection of Nitric Oxide with the [Co2(O2CAr^Tol)4(dansylpiperazine)2Fluorescent Sensor. It is believed that in solution [Co2(O2CAr^Tol)4(dansylpiperazine)2] is in equilibrium between two species: the [Co2(μ-O2CAr^Tol)4(dansylpiperazine)2] (paddle-wheel) isomer and the [Co2(μ-O2CAr^Tol)2(O2CAr^Tol)2(dansylpiperazine)2] (windmill) isomer. […] The ability of the [Co2(O2CAr^Tol)4(dansylpiperazine)2] system to act as a nitric oxide sensor was tested. […] The exact reaction that occurs in this experiment has not yet been determined.
The fluorescence response of [Co2(O2CAr^Tol)4(dansylpiperazine)2] after exposure to excess NO in CH2Cl2 was measured spectroscopically. Solutions were excited at 350 nm and the emission spectrum recorded. The peak emission intensity is at 503 nm before exposure NO, but shifts to 513 nm after exposure to NO. Emission spectra, shown in FIG. 5, were recorded at 0, 1, 5, 10, 20, 30, 40, 50, and 60 minutes post exposure to NO. A fluorescence increase of 9.6-fold was observed after 60 minutes.

[Co2(μ-O2CAr^Tol)4(dansylpiperazine)2] [[Co2(O2CAr^Tol)4(dansylpiperazine)2]]
fluorescence increase (CH2Cl2, excess NO, excited at 350 nm, after 60 minutes): 9.6 fold | peak emission intensity wavelength (after exposure to excess NO): 513 nm | peak emission intensity wavelength (before exposure to NO): 503 nm | fluorescence in the absence of nitric oxide (solution in dichloromethane, before NO (FIG. 4b, left)): little to no fluorescence | fluorescence change after exposure to nitric oxide (solution in dichloromethane, excess NO (FIG. 4b, right)): increase in fluorescence
